Data set [1] has as its system intact lenses dissected from wild-type mouse eyeglobes. The data set can be described thus: Ex vivo lens toxicity test, isolated lenses incubated 2 days. Conditions: 8 mM, 37 C, positive control for lens toxicity. As to the method: (§1) FIG. 3. Ex vivo lens toxicity test of TAPP1. The eyeglobes of mice (aged 42 days) were cultured overnight either with control solution (media containing 45% β-cyclodextrin) or TAPP1 (TAPP1 in media containing 45% β-cyclodextrin), at 37° C. overnight, and in 95% air/5% CO2. […] To determine the effects of TAPP1 on isolated lenses, intact lenses were dissected from wild-type mouse eyeglobes, and incubated in DMEM media in a 96 well tissue culture plate. Groups of 3-6 lenses were incubated in 200 μl of media alone (negative control), 4% (2-hydroxypropyl)-β-cyclodextrin (carrier control), 8 mM hydrogen peroxide (H2O2, positive control for lens toxicity), 4 mM TAPP1-O (free radical form), 4 mM TAPP1-R (reduced form), and 4 mM of the two products of TAPP1-R hydrolysis (HP-1 and HP-2), respectively. β-cyclodextrin was included as a carrier control because all of the stock solutions contained 45% (2-hydroxypropyl)-β-cyclodextrin. The samples were incubated in 5% CO2 incubator at 37 C for 2 days.
(§2) The TAPP compositions are intended for topical delivery to the anterior portion of the eye. […] Morphological or anatomical effects are determined by comparison of TAPP-treated samples to samples incubated with either the TAPP vehicle or samples which are exposed (10 min treatment) to 100% ethanol (a positive control for lens toxicity). […]

Data set [2] in a line: Pharmacokinetics and ocular tissue distribution of total radioactivity after single topical dose in rabbit. The format is in vivo, New Zealand White rabbits. As to the method:
(§3) FIG. 14. Pharmacokinetics and ocular tissue distribution of total radioactivity following single topical dose administration of [^14C]Compound 14 in rabbit. Four New Zealand White rabbits, age 3-4 months, weight 2.7 to 3.2 kg were used for this study. The rabbits were anesthetized and drug was administered as described above. At each specified time post dosing (0.5, 1, 2, and 4 hr), blood was collected from the ear vein of one rabbit and recovered serum volume was recorded. Rabbits were sacrificed by asphyxiation and both eyeballs were enucleated. Each eyeball was rinsed in 10 ml fresh PBS to wash off unabsorbed drug. The following tissues were harvested from each eye: anterior segment, lens, vitreous body, retina and posterior segment (without retina). Total radioactivity of each tissue and in serum was determined using a liquid scintillation analyzer (Packard Tri-Carb 2100TR). CPM was converted to DPM, and quantity of the drug (pmole) absorbed in each tissue was calculated based on specific activity (average DPM in tissues from left and right eyes). The serum level of the drug was determined as concentration (pmole/ml). [^14C]Compound 14 was rapidly taken into ocular tissues (within ˜15 min) and peak drug concentration in all tissues occurred at ˜0.5 hr.
as §3, with “Four” for “FIG. 14. Pharmacokinetics and ocular tissue distribution of total radioactivity following single topical dose administration of [^14C]Compound 14 in rabbit. Four”, “and an ophthalmic formulation of Compound 14” for “and drug”, “administered topically to the eye.” for “administered as described above.”

Data set [3] is described as follows: Pharmacokinetics and ocular tissue distribution of total radioactivity after single topical dose in mice. Format: in vivo, ABCA4+/−/SOD+/− mice. As to the method: (§4) FIG. 13. Pharmacokinetics and ocular tissue distribution of total radioactivity following single topical dose administration of [^14C]Compound 14 in mice. Seven ABCA4+/−/SOD+/− mice were used for this study. The mice were anesthetized and drug was administered as described above. At each specified time post dosing (0 min, 15 min, 30 min, 1 hr, 2 hr, 4 hr and 6 hr), one mouse was sacrificed by cervical dislocation and both eyeballs were enucleated. Each eyeball was rinsed in 1 ml fresh PBS to wash off unabsorbed drug. The right eye was analyzed intact. From the left eye, the following tissues were harvested: lens, anterior segment, retina and posterior segment. Total radioactivity of all tissues was determined using a liquid scintillation analyzer. […] Peak drug concentration in all tissues occurred at ˜1 hr.
as §4, with “Seven” for “FIG. 13. Pharmacokinetics and ocular tissue distribution of total radioactivity following single topical dose administration of [^14C]Compound 14 in mice. Seven”, “and an ophthalmic formulation of Compound 14, prepared as described above,” for “and drug”, “administered topically to the eye.” for “administered as described above.”

Data set [4] deals with oxidation of ABTS to ABTS^•+ radical cation by metmyoglobin. The data set is described as follows: In vitro anti-oxidant assay: inhibition of metmyoglobin-mediated oxidation of ABTS to ABTS•+ (absorbance at 750 nm). The format is biochemical.
The next data set has as its system eyeglobes of mice. The data set can be described thus: Ex vivo lens toxicity test, whole eyeglobes cultured overnight. Conditions: brief treatment (10 min) with 100% ethanol, positive control. As to the method:
as §1, §2

One may read the IC50 as the concentration that inhibits the measured activity by half.

In the case of `OO` [Compound H2O2, hydrogen peroxide], the “cataract in isolated lenses” value in data set [1] is given as “caused obvious cataract”.
Take `CC1(C)CC(OCCCCCC(O)/C=C/C(=O)O)CC(C)(C)N1O` (stereo not shown) [[^14C]Compound 14]: in data set [2], the “amount in vitreous body” value is reported as “intermediate amount”; the “ocular tissues with the highest recovery” value was “anterior and posterior segments”; the “recovery in retina and lens, lower than in anterior and posterior segments” value was “approximately 10 fold”; the “time of peak drug concentration in all tissues” value was roughly 0.5 h. Also, the “time until uptake into ocular tissues” value in data set [2] is given as no more than 15 min. For the same compound, in data set [3], the “ocular tissues with lower concentrations” value was “lens and retina”; the “ocular tissues with the highest concentrations” value is “anterior and posterior segments”; the “time of peak drug concentration in all tissues” value is roughly 1 h; the “time until uptake into ocular tissues” value is given as no more than 15 min. Also, the “dose-response of anti-oxidation activity” value in data set [4] (0, 5, 10, 20, 50, 100, 200 and 500 μM) is given as “dose-dependent anti-oxidation activity”. The same compound gave an IC50 in data set [4] (0-500 μM compound, 15 μM ABTS, 2.5 μM metmyoglobin, 80 μM hydrogen peroxide, room temperature) of roughly 10 µM.
With `CCO` [ethanol, reference compound], the “cataract formation in eyeglobes” value in the data set on eyeglobes of mice is given as “caused cataract formation”.

These data come from patent US20090253745A1, “MODULATORS OF OCULAR OXIDATIVE STRESS” (SIRION THERAPEUTICS, INC., priority 2007, published 2009).
